Numbers after ± are expanded uncertainties.
Experiments:
[1] = xn = mol fraction of the nth substance listed; conditions: 101 kPa, Liquid; for speed of sound: Sing-around technique in a fixed-path interferometer; for mass density: Vibrating tube method
[2] = refractive index (Na D-line) (dimensionless); xn = mol fraction of the nth substance listed; conditions: 101 kPa, Liquid, Standard Abbe refractometry

CCCC[N+]1(C)CCCC1.O=S(=O)([O-])C(F)(F)F [1-butyl-1-methylpyrrolidinium trifluoromethanesulfonate] + O
Conditions | mass density, 288.15 K [kg/m3] | mass density, 298.15 K [kg/m3] | mass density, 308.15 K [kg/m3] | refractive index, 288.15 K | refractive index, 298.15 K | refractive index, 308.15 K | speed of sound, 288.15 K [m/s] | speed of sound, 298.15 K [m/s] | speed of sound, 308.15 K [m/s]
[1], x2 = 0 | 1260.33 ± 0.58 | 1252.98 ± 0.57 | 1245.78 ± 0.56 | – | – | – | 1484.6 ± 1.4 | 1460.1 ± 1.4 | 1436.7 ± 1.4
[1], x2 = 0.0559 | 1259.04 ± 0.54 | 1251.78 ± 0.53 | 1244.55 ± 0.52 | – | – | – | 1486.9 ± 1.4 | 1462.7 ± 1.4 | 1439.7 ± 1.3
[1], x2 = 0.1084 | 1257.8 ± 0.5 | 1250.57 ± 0.49 | 1243.3 ± 0.48 | – | – | – | 1489.1 ± 1.3 | 1464.9 ± 1.3 | 1441.5 ± 1.3
[1], x2 = 0.2076 | 1255.12 ± 0.43 | 1247.82 ± 0.43 | 1240.51 ± 0.42 | – | – | – | 1494.5 ± 1.3 | 1470.5 ± 1.3 | 1447.2 ± 1.3
[1], x2 = 0.2997 | 1252.05 ± 0.38 | 1244.68 ± 0.37 | 1237.3 ± 0.37 | – | – | – | 1500.7 ± 1.2 | 1476.9 ± 1.2 | 1453.6 ± 1.2
[1], x2 = 0.408 | 1247.41 ± 0.32 | 1239.95 ± 0.32 | 1232.47 ± 0.31 | – | – | – | 1509.8 ± 1.2 | 1486.1 ± 1.2 | 1462.8 ± 1.2
[1], x2 = 0.5038 | 1241.91 ± 0.28 | 1234.36 ± 0.28 | 1226.79 ± 0.27 | – | – | – | 1520.1 ± 1.1 | 1496.5 ± 1.1 | 1473.2 ± 1.1
[1], x2 = 0.6003 | 1234.21 ± 0.24 | 1226.56 ± 0.24 | 1218.89 ± 0.24 | – | – | – | 1533.3 ± 1.1 | 1510 ± 1.1 | 1486.7 ± 1.1
[1], x2 = 0.7052 | 1221.39 ± 0.21 | 1213.67 ± 0.21 | 1205.88 ± 0.21 | – | – | – | 1552.3 ± 1.1 | 1529.6 ± 1.1 | 1506.6 ± 1
[1], x2 = 0.8095 | 1198.77 ± 0.18 | 1191.13 ± 0.18 | 1183.37 ± 0.18 | – | – | – | 1576.2 ± 1 | 1555.8 ± 1 | 1534.6 ± 1
[1], x2 = 0.9018 | 1155.9 ± 0.15 | 1148.95 ± 0.14 | 1141.73 ± 0.16 | – | – | – | 1595.4 ± 1 | 1582.1 ± 1 | 1566.6 ± 1
[1], x2 = 0.9533 | 1104.38 ± 0.14 | 1098.73 ± 0.12 | 1092.63 ± 0.16 | – | – | – | 1592.8 ± 1.1 | 1589.4 ± 1 | 1582.8 ± 1.1
[2], x2 = 0 | – | – | – | 1.43557 ± 0.00052 | 1.43289 ± 0.00052 | 1.43018 ± 0.00052 | – | – | –
[2], x2 = 0.0559 | – | – | – | 1.43506 ± 0.00052 | 1.4324 ± 0.00052 | 1.4297 ± 0.00052 | – | – | –
[2], x2 = 0.1084 | – | – | – | 1.43458 ± 0.00051 | 1.43187 ± 0.00052 | 1.42918 ± 0.00052 | – | – | –
[2], x2 = 0.2076 | – | – | – | 1.43345 ± 0.00051 | 1.43075 ± 0.00051 | 1.42808 ± 0.00051 | – | – | –
[2], x2 = 0.2997 | – | – | – | 1.43221 ± 0.0005 | 1.42951 ± 0.0005 | 1.42683 ± 0.00051 | – | – | –
[2], x2 = 0.408 | – | – | – | 1.43031 ± 0.00049 | 1.42762 ± 0.0005 | 1.4249 ± 0.00051 | – | – | –
[2], x2 = 0.5038 | – | – | – | 1.42809 ± 0.00048 | 1.42536 ± 0.0005 | 1.42262 ± 0.00051 | – | – | –
[2], x2 = 0.6003 | – | – | – | 1.42501 ± 0.00047 | 1.42221 ± 0.0005 | 1.41943 ± 0.00053 | – | – | –
[2], x2 = 0.7052 | – | – | – | 1.41987 ± 0.00043 | 1.41708 ± 0.00049 | 1.4143 ± 0.00057 | – | – | –
[2], x2 = 0.8095 | – | – | – | 1.41085 ± 0.00041 | 1.40814 ± 0.00048 | 1.40557 ± 0.00069 | – | – | –
[2], x2 = 0.9018 | – | – | – | 1.39398 ± 0.00045 | 1.39161 ± 0.00046 | 1.38937 ± 0.00076 | – | – | –
[2], x2 = 0.9533 | – | – | – | 1.37399 ± 0.00072 | 1.3721 ± 0.00044 | 1.37023 ± 0.001 | – | – | –
